Experimental data reported in patent publication US11376277B2, “Synergistic medicinal compositions for treating dysfunctional D-serine signaling” (CELAGENEX RESEARCH (INDIA) PVT. LTD., priority 2020, dated 2022).
Where two headings read alike, the source gives them in different places.

What was measured:
human SR = target: T1, human SR (Homo sapiens, UniProt Q9GZT4); settings: cited from earlier work
T1 sequence (Q9GZT4 1-340): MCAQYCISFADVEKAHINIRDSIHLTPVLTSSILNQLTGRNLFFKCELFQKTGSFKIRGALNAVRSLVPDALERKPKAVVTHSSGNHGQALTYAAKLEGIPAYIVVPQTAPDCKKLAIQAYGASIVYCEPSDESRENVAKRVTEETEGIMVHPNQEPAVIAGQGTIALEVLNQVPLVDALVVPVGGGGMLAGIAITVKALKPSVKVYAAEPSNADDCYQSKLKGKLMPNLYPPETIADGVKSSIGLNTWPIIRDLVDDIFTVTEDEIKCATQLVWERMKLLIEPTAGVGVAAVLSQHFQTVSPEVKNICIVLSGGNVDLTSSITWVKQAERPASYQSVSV

D-serine [1] = experiment: Pharmacokinetics profile of D-serine in rat model, blood plasma; settings: for ln(C) / Conc / AUC: D-serine in rat plasma; for Conc: doses per Table 1
Method: (§1) To assess and compare the pharmacokinetics profile of D-serine in rat model.
(§2) Six groups were divided into 4 sets of 3 rats each/subset for bleeding and organ (brain) collection—Total 72 rats
Plasma was separated using refrigerated centrifuge & stored in −80° C. before analysis. Blood was collected at time point 0, 2, 6 and 10 hrs at least from 3 rats/group/time point.
(§3) Supernatant was filtered with 0.2 micron amicon syringe filter (Millipore, Hessen, Germany), then directly transferred into auto sampler vials
(§4) An Accela™ ultra-high performance liquid chromatography (UHPLC) system (Thermo Fisher, Waltham, USA), coupled online via heated electrospray ionization source (HESI) with a Q-Exactive-Orbitrap mass spectrometer (Thermo Fisher), was employed for global metabolomics profiling with 1 μL sample injection volume. The metabolites were profiled using a C18 Hypersil Gold column (1.9 μm, 2.1×150 mm, Thermo).
(§5) The temperature of column oven was set at 35° C. and the sample manager was maintained at 4° C. The eluents acetonitrile and water containing 0.1% formic acid were employed in the electrospray ionization-positive (ESI+) mode.
(§6) The area under the plasma concentration time curve (AUC) value was calculated to the last quantifiable sample (AUClast) by using the log-linear trapezoidal rule.

D-serine [2] = experiment: Pharmacokinetics profile of D-serine in rat model, brain tissue sample; settings: for ln(C) / Conc / AUC: D-serine in rat brain tissue; for Conc: doses per Table 1
Method: as §1, §2
Organ (Brain) collection: Rats were sacrificed each time point (3 rats/group/time point) by decapitation at 0, 2, 6 or 10 hr post dose. Brain was removed and cerebellum dissected on ice. Tissue samples were frozen on dry ice and stored at −80° C. until analysis.
as §3, §4, §5, §6

[3] = D-serine, rat plasma, non-compartmental analysis
[4] = D-serine, rat brain tissue, non-compartmental analysis

[Ca+2] [Ca′]
activity of the enzyme relative to purified human SR without divalent cation supplementation (human SR; @1 mM): 134%

N[C@@H](COS(=O)(=O)O)C(=O)O [L-Serine 0-sulfate, L-Serine O-sulfate, reference compound]
D-Serine over control (D-serine [1]; rat, treated with serine racemase inhibitor, 1.86 mg/kg): substantially reduced

[Mg+2] [Mg^2+]
activity of the enzyme relative to purified human SR without divalent cation supplementation (human SR; @10 μM): 112%

[Mn+2] [Mn^2+]
activity of the enzyme relative to purified human SR without divalent cation supplementation (human SR; @10 μM): 153%

magnesium 2-acetamidoethanesulfonate dihydrate [Test I]
ln(C) (D-serine [1]; Time 0 (pre-dose)): −0.3877 | Conc (D-serine [1]; Time 0 (pre-dose)): 0.6786 | ln(C) (D-serine [1]; Time 2 hr): −0.4986 | Conc (D-serine [1]; Time 2 hr): 0.6074 | ln(C) (D-serine [1]; Time 6 hr): −0.6686 | Conc (D-serine [1]; Time 6 hr): 0.5124 | ln(C) (D-serine [1]; Time 10 hr): −0.85 | Conc (D-serine [1]; Time 10 hr): 0.4274 | AUC (D-serine [1]; cumulative to Time 2 hr): 1.286 | AUC (D-serine [1]; cumulative to Time 6 hr): 3.5256 | AUC 0-inf_obs (D-serine [1]; [3]): 11130 ng·h/mL | AUMC 0-inf_obs (D-serine [1]; [3]): 343.2 μg/ml*h^2 | Cl/F_obs (D-serine [1]; [3]): 2.39 (mg)/(μg/ml)/h | Cmax (D-serine [1]; [3]): 678.6 ng/mL | MRT 0-inf_obs (D-serine [1]; [3]): 22.68 h | Tlag (D-serine [1]; [3]): 0 h | Tmax (D-serine [1]; [3]): 0 h | Vz/F_obs (D-serine [1]; [3]): 54.4 (mg)/(μg/ml) | t1/2 (D-serine [1]; [3]): 15.78 h | AUC 0-t (D-serine [1]; D-serine, rat plasma, non-compartmental analysis, 0-10 hr): 3405.2 ng·h/mL | Lambda_z (D-serine [1]; D-serine, rat plasma, non-compartmental analysis, extravascular input): 0.04393 L/h | AUC values of D-serine (D-serine [1]; rat plasma, G4 36.17 mg/kg, G5 31.01 mg/kg): increased | ln(C) (D-serine [2]; Time 0 (pre-dose)): −0.8701 | Conc (D-serine [2]; Time 0 (pre-dose)): 0.4189 | ln(C) (D-serine [2]; Time 2 hr): −0.981 | Conc (D-serine [2]; Time 2 hr): 0.3749 | ln(C) (D-serine [2]; Time 6 hr): −1.151 | Conc (D-serine [2]; Time 6 hr): 0.3163 | ln(C) (D-serine [2]; Time 10 hr): −1.332 | Conc (D-serine [2]; Time 10 hr): 0.2638 | AUC (D-serine [2]; cumulative to Time 2 hr): 0.7938 | AUC (D-serine [2]; cumulative to Time 6 hr): 2.176 | AUC 0-inf_obs (D-serine [2]; [4]): 7342 ng·h/mL | AUMC 0-inf_obs (D-serine [2]; [4]): 211.9 μg/ml*h^2 | Cl/F_obs (D-serine [2]; [4]): 3.872 (mg)/(μg/ml)/h | Cmax (D-serine [2]; [4]): 418.9 ng/mL | MRT 0-inf_obs (D-serine [2]; [4]): 22.68 h | Tlag (D-serine [2]; [4]): 0 h | Tmax (D-serine [2]; [4]): 0 h | Vz/F_obs (D-serine [2]; [4]): 88.12 (mg)/(μg/ml) | t1/2 (D-serine [2]; [4]): 15.78 h | AUC 0-t (D-serine [2]; D-serine, rat brain tissue, non-compartmental analysis, 0-10 hr): 2137 ng·h/mL | Lambda_z (D-serine [2]; D-serine, rat brain tissue, non-compartmental analysis, extravascular input): 0.04393 L/h | AUC values of D-serine (D-serine [2]; rat brain tissue samples, G4 36.17 mg/kg, G5 31.01 mg/kg): increased
